{"source": "patent US11980209B2", "about": "“Consumables” (GIVAUDAN SA, priority 2007, dated 2024)", "key": {"[1]": {"system": "perceived sweet taste (sweet sensitive panelists)", "assay": "Ranking test of 2 ppm NHDC in water (Example 7)", "assay_type": "in vivo, human"}, "sucrose sweetness": {"system": "sucrose sweetness", "conditions": "NHDC at its sweetness detection threshold; Kroeze et al., Chem. Senses 2000; cited from earlier work"}, "[2]": {"system": "perceived sweetness (sweet sensitive panelists)", "assay": "Determined isointensities to sucrose solutions of the optional enhancers", "assay_type": "in vivo, human", "procedure": "The sweetness detection threshold for trilobatin, HDG and optional enhancers were determined by the applicant.\nThe sweetness detection threshold varies somewhat in different individuals. For example, some individuals are able to detect the sweetness of sucrose in a very low concentration of 0.4%, others need at least 0.7%, or at least 1% or even more. All examples were performed with sweet sensitive panelists able to detect at least 0.5% of sucrose or less. The concentration detectable by the average consumer will therefore be higher."}, "[3]": {"system": "perceived sweet taste (sweet sensitive panelists)", "assay": "Ranking test with R-index, isointensity of 15 and 20 ppm HDG in water (Example 1d)", "assay_type": "in vivo, human", "conditions": "for R-index: critical values 37.26-62.74%", "procedure": "All examples were performed with sweet sensitive panelists able to detect at least 0.5% of sucrose or less, unless stated otherwise. The concentration detectable by the average consumer will be higher. The results were obtained using 20 panelists in two replications.\nThe sucrose concentration that tastes isointense in sweetness to HDG was determined using samples of 15 ppm and 20 ppm, each of which was directly compared to a sucrose sample (sucrose solutions of 0.5%, 1%, 1.5% and 2% concentration). Fifteen milliliters of each blinded sample was presented, at room temperature, in random order to 20 sweet sensitive panelists. In two replications (over 1 session), panelists were asked to rank the solutions, from least sweet to most sweet. The data was subjected to an R-index analysis."}, "[4]": {"system": "perceived sweetness (sweet sensitive panelists)", "assay": "Ranking test with R-index, sweetness enhancement by 10 ppm HDG in 7% sucrose (Example 12)", "assay_type": "in vivo, human", "conditions": "for R-index: critical value 37.1 to 62.9%", "procedure": "The degree of sweetness enhancement of HDG was tested by determining the isointensity of the HDG-enhanced samples in comparison to sucrose samples. The samples contained 10 ppm HDG in 7% sucrose (HDG-10), and various sucrose solutions of different concentration in water (7%, 8%, 9%, and 10%).\n15 ml of each sample was presented at room temperature and in random order to 20 sweet sensitive panelists. In two replications over 1 session, panelists were asked to compare and rank the samples from least sweet to most sweet. The critical value indicates the range wherein the difference of two samples is non-significant."}, "[5]": {"system": "perceived sweet taste (sweet sensitive panelists)", "assay": "Ranking test with R-index, isointensity of 20 ppm HDG in 7% sucrose (Example 2b)", "assay_type": "in vivo, human", "conditions": "for R-index: critical values 37.11-62.89%", "text": "Panels consisted of 20 sweet sensitive subjects and samples were presented in 2 replications over 1 session. Panelists were presented with 7%, 8%, 9% and 10% sucrose solutions in water and a fifth sample of 20 ppm HDG in 7% sucrose in random order. Subjects were asked to rank the samples from low to high with respect to perceived sweet taste."}, "[6]": {"system": "perceived sweet taste (panel)", "assay": "Small panel ranking of 5-20 ppm HDG in water (Example 1d)", "assay_type": "in vivo, human", "conditions": "for Rank and taste: rank from least sweet to most sweet", "procedure": "Further three small panel testings were performed. HDG samples were prepared in concentrations of 5 ppm, 10 ppm, 15 ppm, and 20 ppm in water. All the samples were coded (presented blind) and given to the panel in random order. The panel was also presented with sucrose solutions for comparison. The panel was asked to taste each sample and rank the samples from the least sweet to most sweet."}, "[7]": {"system": "perceived sweetness (panelists)", "assay": "Sweetness of HDG in a cola beverage (Example 14)", "assay_type": "in vivo, human", "conditions": "20 ppm HDG in cola beverage sweetened with 7% sucrose", "text": "20 ppm of HDG in a cola beverage sweetened with 7% sucrose was compared to control samples (cola without HDG and sweetened with 7 or 9% sucrose) by 9 panelists.\nPanelists were instructed to taste and compare the samples in their sweetness intensity and profile."}, "[8]": {"system": "perceived sweetness (sweet sensitive panelists)", "assay": "Sweetness rating on generalized labeled magnitude scale (Example 6)", "assay_type": "in vivo, human", "conditions": "1% sucrose in water, test run 3", "text": "Further, panelists were asked to rate each presented sample for sweetness using the generalized labeled magnitude scale (0=no sweetness; […] of any kind). The rating data was compared using the paired t-test."}, "[9]": {"conditions": "10 ppm HDG in 7% sucrose vs 7% sucrose"}, "[10]": {"conditions": "10 ppm HDG in 7% sucrose vs 8% sucrose"}, "[11]": {"conditions": "10 ppm HDG in 7% sucrose vs 9% sucrose"}, "[12]": {"conditions": "10 ppm HDG in 7% sucrose vs 10% sucrose"}}}
{"smiles": "COc1ccc(CCC(=O)c2c(O)cc(O[C@@H]3O[C@H](CO)[C@@H](O)[C@H](O)[C@H]3O[C@@H]3O[C@@H](C)[C@H](O)[C@@H](O)[C@H]3O)cc2O)cc1O", "note": "[NHDC, Neohesperidin dihydrochalcone]", "values": [{"measurement": "isointensity to sucrose", "setting": "[1]; 2 ppm NHDC in water", "value": 0.5, "unit": "% sucrose"}, {"measurement": "NHDC sample sweetness", "setting": "[1]; 2 ppm NHDC in water vs 0.5% sucrose solution", "value": "isosweet"}, {"measurement": "NHDC sample sweetness", "setting": "[1]; 2 ppm NHDC in water vs 1% sucrose solution", "value": "less sweet"}, {"measurement": "R-index", "setting": "[1]; 2 ppm NHDC in water vs 1% sucrose, critical values 35.39-64.61%", "value": 5, "unit": "%"}, {"measurement": "enhancement of sucrose sweetness", "setting": "sucrose sweetness", "value": "does not enhance sucrose sweetness"}]}
{"smiles": "C=C1C[C@@]23CC[C@H]4[C@@](C)(CCC[C@@]4(C)C(=O)O[C@@H]4O[C@H](CO)[C@@H](O)[C@H](O)[C@H]4O)[C@@H]2CC[C@]1(O[C@@H]1O[C@H](CO)[C@@H](O)[C@H](O)[C@H]1O[C@@H]1O[C@H](CO)[C@@H](O)[C@H](O)[C@H]1O)C3", "note": "[stevioside, Stevioside]", "values": [{"measurement": "isointensity to sucrose", "setting": "[2]; 30 ppm stevioside", "value": 0.5, "unit": "% sucrose"}, {"measurement": "isointensity to sucrose", "setting": "[2]; 40 ppm stevioside", "value": 0.75, "unit": "% sucrose"}]}
{"smiles": "COc1ccc(CCC(=O)c2c(O)cc(O[C@@H]3O[C@H](CO)[C@@H](O)[C@H](O)[C@H]3O)cc2O)cc1O", "note": "[HDG, 1-[4-(-D-glucopyranosyloxy)-2,6-dihydroxyphenyl]-3-(3-hydroxy-4-methoxyphenyl)-1-propanone]", "values": [{"measurement": "R-index", "setting": "[3]; 15 ppm HDG in water vs 0.5% sucrose", "value": 85, "unit": "%"}, {"measurement": "R-index", "setting": "[3]; 15 ppm HDG in water vs 1.0% sucrose", "value": 31, "unit": "%"}, {"measurement": "R-index", "setting": "[3]; 15 ppm HDG in water vs 1.5% sucrose", "value": 10, "unit": "%"}, {"measurement": "R-index", "setting": "[3]; 15 ppm HDG in water vs 2.0% sucrose", "value": 1, "unit": "%"}, {"measurement": "sample sweetness (HDG, 15 ppm)", "setting": "[3]; 15 ppm in water vs 0.5% sucrose solution", "value": "sweeter"}, {"measurement": "sample sweetness (HDG, 15 ppm)", "setting": "[3]; 15 ppm in water vs 1.0% sucrose solution", "value": "less sweet"}, {"measurement": "sample sweetness (HDG, 15 ppm)", "setting": "[3]; 15 ppm in water vs 1.5% sucrose solution", "value": "less sweet"}, {"measurement": "sample sweetness (HDG, 15 ppm)", "setting": "[3]; 15 ppm in water vs 2.0% sucrose solution", "value": "less sweet"}, {"measurement": "R-index", "setting": "[3]; 20 ppm HDG in water vs 0.5% sucrose", "value": 92, "unit": "%"}, {"measurement": "R-index", "setting": "[3]; 20 ppm HDG in water vs 1.0% sucrose", "value": 51, "unit": "%"}, {"measurement": "R-index", "setting": "[3]; 20 ppm HDG in water vs 1.5% sucrose", "value": 33, "unit": "%"}, {"measurement": "R-index", "setting": "[3]; 20 ppm HDG in water vs 2.0% sucrose", "value": 4, "unit": "%"}, {"measurement": "sample sweetness (HDG, 20 ppm)", "setting": "[3]; 20 ppm in water vs 0.5% sucrose solution", "value": "Sweeter"}, {"measurement": "sample sweetness (HDG, 20 ppm)", "setting": "[3]; 20 ppm in water vs 1.0% sucrose solution", "value": "Isosweet"}, {"measurement": "sample sweetness (HDG, 20 ppm)", "setting": "[3]; 20 ppm in water vs 1.5% sucrose solution", "value": "Less sweet"}, {"measurement": "sample sweetness (HDG, 20 ppm)", "setting": "[3]; 20 ppm in water vs 2.0% sucrose solution", "value": "Less sweet"}, {"measurement": "added sucrose sweetness intensity", "setting": "[4]; 10 ppm HDG in 7% sucrose", "value": "about 1 ° Brix"}, {"measurement": "expected isointensity to sucrose assuming a merely additive effect", "setting": "[4]; 10 ppm HDG in 7% sucrose", "value": 7.5, "unit": "%"}, {"measurement": "isointensity to sucrose", "setting": "[4]; 10 ppm HDG in 7% sucrose", "value": 8, "unit": "% sucrose"}, {"measurement": "sweetness HDG sample", "setting": "[4]; [9]", "value": "sweeter"}, {"measurement": "R-index", "setting": "[4]; [9]", "value": 75.2, "unit": "%"}, {"measurement": "sweetness HDG sample", "setting": "[4]; [10]", "value": "isosweet"}, {"measurement": "R-index", "setting": "[4]; [10]", "value": 37.5, "unit": "%"}, {"measurement": "sweetness HDG sample", "setting": "[4]; [11]", "value": "less"}, {"measurement": "R-index", "setting": "[4]; [11]", "value": 10.7, "unit": "%"}, {"measurement": "sweetness HDG sample", "setting": "[4]; [12]", "value": "less"}, {"measurement": "R-index", "setting": "[4]; [12]", "value": 0.6, "unit": "%"}, {"measurement": "added sucrose sweetness intensity", "setting": "[5]; 20 ppm HDG in 7% sucrose", "value": "1.5-2 ° Brix"}, {"measurement": "R-index", "setting": "[5]; 20 ppm HDG in 7% sucrose vs 7% sucrose", "value": 94.8, "unit": "%"}, {"measurement": "R-index", "setting": "[5]; 20 ppm HDG in 7% sucrose vs 8% sucrose", "value": 62.6, "unit": "%"}, {"measurement": "R-index", "setting": "[5]; 20 ppm HDG in 7% sucrose vs 9% sucrose", "value": 46.0, "unit": "%"}, {"measurement": "R-index", "setting": "[5]; 20 ppm HDG in 7% sucrose vs 10% sucrose", "value": 6.8, "unit": "%"}, {"measurement": "sample sweetness (7% sucrose + 20 ppm HDG)", "setting": "[5]; vs 7% sucrose solution", "value": "Sweeter"}, {"measurement": "sample sweetness (7% sucrose + 20 ppm HDG)", "setting": "[5]; vs 8% sucrose solution", "value": "Isosweet"}, {"measurement": "sample sweetness (7% sucrose + 20 ppm HDG)", "setting": "[5]; vs 9% sucrose solution", "value": "Isosweet"}, {"measurement": "sample sweetness (7% sucrose + 20 ppm HDG)", "setting": "[5]; vs 10% sucrose solution", "value": "Less sweet"}, {"measurement": "isointensity to sucrose", "setting": "[6]; 5 ppm HDG in water", "value": "0% sucrose (water)"}, {"measurement": "Rank and taste", "setting": "[6]; 5 ppm HDG in water", "value": "1 - not sweet"}, {"measurement": "Rank and taste", "setting": "[6]; 10 ppm HDG in water", "value": "2 - very slightly sweet"}, {"measurement": "Rank and taste", "setting": "[6]; 15 ppm HDG in water", "value": "3 - slightly sweet"}, {"measurement": "isointensity to sucrose", "setting": "[6]; 20 ppm HDG in water", "value": 1, "unit": "% sucrose"}, {"measurement": "Rank and taste", "setting": "[6]; 20 ppm HDG in water", "value": "4 - sweet"}, {"measurement": "sweetness threshold of HDG detected by sweet sensitive individuals", "setting": "[6]; in water", "value": "about 10 ppm"}, {"measurement": "sweetness compared to 9% sucrose cola control", "setting": "[7]", "value": "not as sweet"}, {"measurement": "sweetness compared to 7% sucrose cola control", "setting": "[7]; all 9 panelists", "value": "significantly sweeter"}, {"measurement": "taste profile", "setting": "[7]; similar to the sucrose controls in sweetness onset and duration", "value": "non-lingering"}]}
{"smiles": "OC[C@H]1O[C@@](CO)(O[C@H]2O[C@H](CO)[C@@H](O)[C@H](O)[C@H]2O)[C@@H](O)[C@@H]1O", "note": "[sucrose, alpha-D-glucopyranosyl-(1→2)-beta-D-fructofuranose]", "values": [{"measurement": "sweetness rating, generalized labeled magnitude scale (0=no sweetness; 10=strongest imaginable sensation)", "setting": "[8]", "value": "0.72 ± 0.06"}]}
{"smiles": "C=C1C[C@@]23CC[C@H]4[C@@](C)(CCC[C@@]4(C)C(=O)O[C@@H]4O[C@H](CO)[C@@H](O)[C@H](O)[C@H]4O)[C@@H]2CC[C@]1(O[C@@H]1O[C@H](CO)[C@@H](O)[C@H](O[C@@H]2O[C@H](CO)[C@@H](O)[C@H](O)[C@H]2O)[C@H]1O[C@@H]1O[C@H](CO)[C@@H](O)[C@H](O)[C@H]1O)C3", "note": "[rebaudioside A, Rebaudioside A]", "values": [{"measurement": "isointensity to sucrose", "setting": "[2]; 20 ppm rebaudioside A", "value": 0.75, "unit": "% sucrose"}]}
{"smiles": "C[C@@H]1O[C@@H](O[C@H]2[C@H](Oc3cc(O)c(C(=O)CCc4ccc(O)cc4)c(O)c3)O[C@H](CO)[C@@H](O)[C@@H]2O)[C@H](O)[C@H](O)[C@H]1O", "note": "[naringin dihydrochalcone, 1-[4-[[2-O-(6-Deoxy-alpha-L-mannopyranosyl)-beta-D-glucopyranosyl]oxy]-2,6-dihydroxyphenyl]-3-(4-hydroxyphenyl)-1-propanone]", "values": [{"measurement": "isointensity to sucrose", "setting": "[2]; 45 ppm naringin dihydrochalcone", "value": 0.5, "unit": "% sucrose"}, {"measurement": "isointensity to sucrose", "setting": "[2]; 60 ppm naringin dihydrochalcone", "value": 1.25, "unit": "% sucrose"}]}
